The results in this text go back to patent US20130079322A1, “CRYSTALLINE OF CARBAPENEM DERIVATIVE OR ITS HYDRATE, PREPARATION METHODS AND USES THEREOF” (priority 2010, published 2013).

The nature of data set [1]: Stability assay at a high temperature of 60° C. (HPLC content and related substances). In kind it is physicochemical. On the procedure:
Condition for the assay: sampled after placing for 5 days, 10 days at a high temperature of 60° C., and the results thus obtained were compared with those obtained at day 0 by measuring related substances and contents thereof. The samples were sealed with plastic bags coated with aluminium foils during the assay. Amorphous compound A (refers to the amorphous for short hereinafter): self-prepared. Preparation method: see the preparation of amorphous compound A in the above preparative examples. The purity is 96.66%, and the batch number is 110901. The crystalline form I of compound A (refers to the crystalline form I for short hereinafter): prepared by example 1 of the Specification. The batch number is 20100315-4. Content determination is performed by external standard method using the sample at day 0 as control according to the high performance liquid chromatography in Chinese Pharmacopoeia, 2010 edition, appendix VD. Determination of related substances is performed by area normalization method according to the high performance liquid chromatography in Chinese Pharmacopoeia, 2010 edition, appendix VD. Mobile phase: A: 0.02 M diammonium phosphate (pH=5.2 adjusted by phosphoric acid):acetonitrile=95:5. • B: 0.02 M diammonium phosphate (pH=5.2 adjusted by phosphoric acid):acetonitrile=30:70. Gradient condition: see Table 1 The experimental results obtained: see Table 2

The test system of a further data set is Moraxelle catarrhalis. Put plainly: Antibacterial activity, standard agar double dilution method. In kind it is cell-based. The settings on record: clinically isolated strains. The source says: (§1) Test strains: the following clinically isolated strains were provided by public organizations.
(§2) Gram-negative bacteria: ESBLs negative Escherichia coli, ESBLs positive Escherichia coli, Haemophilus influenzae, and Moraxelle catarrhalis.
(§3) Test compound: the crystalline form I of compound A
(§4) Experimental method: standard agar double dilution method was adopted.

Data set [2] has as its system Gram-positive and Gram-negative bacteria. Kind of data set: Antibacterial activity against clinically isolated strains (overall conclusion). In kind it is cell-based. The settings on record: against both Gram-positive and Gram-negative bacteria.
Source text: as §1
Gram-positive bacteria: methicillin sensitive Staphylococcus aureus (MSSA), and penicillin sensitive Streptococcus pneumoniae;
as §2, §3, §4

[3] abbreviates: 60° C., day 5 compared with day 0.
Setting [4] is: 60° C., day 10 compared with day 0.

In brackets after ≈: the same amount, converted by molar mass.

Take `C[C@@H](O)[C@H]1C(=O)N2C(C(=O)O)=C(S[C@@H]3CN[C@H](C(=O)NCc4ccc(S(N)(=O)=O)cc4)C3)[C@H](C)[C@H]12` [The amorphous]: in data set [1] (60° C., day 5, sample at day 0 as control), the Content % worked out at 73.16%. In data set [1] (60° C., day 5, sealed), the “Related substance % open ring %” value was 3.328% and the “Related substance % total %” value is listed as 20.675%. In data set [1] (setting [3]), the Content decrease % is given as 26.84%, the “Related substance % increase open ring %” value was determined as 2.852% and the “Related substance % increase total %” value stood at 11.38%. For the same compound, in data set [1] (day 0), the “Related substance % open ring %” value is given as 0.476% and the “Related substance % total %” value is 9.295%.
For orientation: MIC90 means the lowest concentration that inhibits either 90% of growth or 90% of the strains tested, depending on the study. Low values mean higher susceptibility, high ones lower susceptibility. In the case of `C[C@@H](O)[C@H]1C(=O)N2C(C(=O)O)=C(S[C@@H]3CN[C@H](C(=O)NCc4ccc(S(N)(=O)=O)cc4)C3)[C@H](C)[C@H]12` [The crystalline form I], in data set [1] (60° C., 5 and 10 days), the “Stability as compared with the amorphous of compound A” value is “more stable”. Besides, in data set [1] (setting [3]), the Content decrease % was determined as 3.73%, the “Related substance % increase open ring %” value is on record as 0.646% and the “Related substance % increase total %” value is given as 0.841%. Further, in data set [1] (setting [4]), the Content decrease % is on record as 3.95%, the “Related substance % increase open ring %” value stood at 0.984% and the “Related substance % increase total %” value came to 1.167%. The MIC90 in the data set on Moraxelle catarrhalis came to 8 ng/mL (≈ 0.0152 µM). Further, the Antibacterial activity result in data set [2] is “excellent antibacterial activity”.
